≈ marks a conversion by molar mass, not a printed value.
Columns and labels:
Assay type in all cases: functional
Staphylococcus aureus [1] = assay: Antibacterial activity against methicillin resistant Staphylococcus aureus ATCC 33591 after 16 to 20 hrs by CLSI method
[2] = tested on: Staphylococcus epidermidis; assay: Antibacterial activity against methicillin resistant Staphylococcus epidermidis NR 46386 after 16 to 20 hrs by CLSI method
Staphylococcus aureus [3] = assay: Antibacterial activity against methicillin resistant Staphylococcus aureus NR 45906 after 16 to 20 hrs by CLSI method
Staphylococcus aureus [4] = assay: Antibacterial activity against methicillin resistant Staphylococcus aureus BAA-44 after 16 to 20 hrs by CLSI method
Staphylococcus aureus [5] = assay: Antibacterial activity against methicillin resistant Staphylococcus aureus ATCC 43300 after 16 to 20 hrs by CLSI method
Staphylococcus aureus [6] = assay: Antibacterial activity against linezolid/methicillin resistant Staphylococcus aureus NR 45926 after 16 to 20 hrs by CLSI method
Staphylococcus aureus [7] = assay: Antibacterial activity against methicillin resistant Staphylococcus aureus NR 45898 after 16 to 20 hrs by CLSI method
Staphylococcus aureus [8] = assay: Antibacterial activity against linezolid/methicillin resistant Staphylococcus aureus NR 45924 after 16 to 20 hrs by CLSI method
Staphylococcus aureus [9] = assay: Antibacterial activity against methicillin resistant Staphylococcus aureus BAA-1685 after 16 to 20 hrs by CLSI method
[10] = tested on: Staphylococcus epidermidis; assay: Antibacterial activity against methicillin resistant Staphylococcus epidermidis ATCC 51625 after 16 to 20 hrs by CLSI method
Staphylococcus aureus [11] = assay: Antibacterial activity against methicillin resistant Staphylococcus aureus NR 45913 after 16 to 20 hrs by CLSI method
Bacillus cereus = assay: Antibacterial activity against Bacillus cereus

## CCCCCC1=C(O)C(=O)N2CCCC12 (stereo not drawn)
Staphylococcus aureus [1]
  MIC: > 128 µg/mL

## CCCCCCN1C(=O)C(O)=C(c2ccc(C(F)(F)F)cc2)C1c1ccccc1 (racemic)
Staphylococcus aureus [1]
  MIC: 32 µg/mL (≈ 79.3 µM)

## CCC1C(c2ccc(C(F)(F)F)cc2)=C(O)C(=O)N1Cc1ccncc1 (racemic)
Staphylococcus aureus [1]
  MIC: 64 µg/mL (≈ 177 µM)

## CCCCCCN1C(=O)C(O)=C(c2ccc(C(F)(F)F)cc2)C1CCc1ccccc1 (racemic)
Staphylococcus aureus [1]
  MIC: 64 µg/mL (≈ 148 µM)

## Cc1ccc(C2=C(O)C(=O)N3CCCC23)cc1 (racemic)
Staphylococcus aureus [1]
  MIC: 128 µg/mL (≈ 558 µM)

## CCC1C(c2ccc(C(F)(F)F)cc2)=C(O)C(=O)N1Cc1ccc(C(F)(F)F)cc1 (racemic)
Staphylococcus aureus [1]
  MIC: 32 µg/mL (≈ 74.5 µM)

## O=C1C(O)=C(c2ccc(C(F)(F)F)cc2)C2CCCN12 (stereo not drawn)
Staphylococcus aureus [1]
  MIC: 128 µg/mL (≈ 452 µM)

## O=C1C(O)=C(c2ccc(Br)cc2)C2CCCN12 (stereo not drawn)
Staphylococcus aureus [1]
  MIC: 128 µg/mL (≈ 435 µM)

## COC1=C(c2ccc(C(F)(F)F)cc2)C2CCCCN2C1=O (stereo not drawn)
Staphylococcus aureus [1]
  MIC: > 128 µg/mL

## O=C1C(O)=C(c2ccccc2[N+](=O)[O-])C2CCCN12 (stereo not drawn)
Staphylococcus aureus [1]
  MIC: > 128 µg/mL

## CCC1C(c2ccc(C(F)(F)F)cc2)=C(O)C(=O)N1Cc1ccc(-c2ccccc2)cc1 (racemic)
Staphylococcus aureus [1]
  MIC: 64 µg/mL (≈ 146 µM)

## CCCCCCN1C(=O)C(O)=C(c2ccc(C(F)(F)F)cc2)C1CC (racemic)
Staphylococcus aureus [1]
  MIC: 2 µg/mL (≈ 5.63 µM)
[2]
  MIC: 8 µg/mL (≈ 22.5 µM)
Staphylococcus aureus [3]
  MIC: 4 µg/mL (≈ 11.3 µM)
Staphylococcus aureus [4]
  MIC: 64 µg/mL (≈ 180 µM)
Staphylococcus aureus [5]
  MIC: 64 µg/mL (≈ 180 µM)
Staphylococcus aureus [6]
  MIC: 32 µg/mL (≈ 90 µM)
Staphylococcus aureus [7]
  MIC: 32 µg/mL (≈ 90 µM)
Staphylococcus aureus [8]
  MIC: 64 µg/mL (≈ 180 µM)
Staphylococcus aureus [9]
  MIC: 64 µg/mL (≈ 180 µM)
[10]
  MIC: 4 µg/mL (≈ 11.3 µM)
Staphylococcus aureus [11]
  MIC: 32 µg/mL (≈ 90 µM)

## O=C1C(O)=C(c2ccc(F)cc2)C2CCCN12 (racemic)
Staphylococcus aureus [1]
  MIC: > 128 µg/mL

## CC[C@H]1OC(=O)[C@H](C)[C@@H](O[C@H]2C[C@@](C)(OC)[C@@H](O)[C@H](C)O2)[C@H](C)[C@@H](O[C@@H]2O[C@H](C)C[C@H](N(C)C)[C@H]2O)[C@](C)(O)C[C@@H](C)C(=O)[C@H](C)[C@@H](O)[C@]1(C)O [ERYTHROMYCIN]
Staphylococcus aureus [6]
  MIC: 0.5 µg/mL (≈ 0.681 µM)
Staphylococcus aureus [8]
  MIC: 0.5 µg/mL (≈ 0.681 µM)

## CC1CCN2C(=O)C(O)=C(c3ccc(C(F)(F)F)cc3)C2C1 (racemic)
Staphylococcus aureus [1]
  MIC: 128 µg/mL (≈ 411 µM)

## O=C1C(O)=C(c2ccc(Cl)cc2)C2CCCN12 (racemic)
Staphylococcus aureus [1]
  MIC: > 128 µg/mL

## O=C1C(O)=C(c2ccc(C(F)(F)F)cc2)C2CCCCN12 (stereo not drawn)
Staphylococcus aureus [1]
  MIC: 32 µg/mL (≈ 108 µM)

## Cc1ccc(C2=C(O)C(=O)N3CCCCC23)cc1 (racemic)
Staphylococcus aureus [1]
  MIC: > 128 µg/mL

## CCC1C(c2ccc(C(F)(F)F)cc2)=C(O)C(=O)N1CC(C)C (racemic)
Staphylococcus aureus [1]
  MIC: 16 µg/mL (≈ 48.9 µM)

## C=CCN1C(=O)C(O)=C(c2ccc(C(F)(F)F)cc2)C1CC (racemic)
Staphylococcus aureus [1]
  MIC: 32 µg/mL (≈ 103 µM)

## O=C1C(O)=C(c2ccc(C(F)(F)F)cc2)C2CCCCCN12 (racemic)
Staphylococcus aureus [1]
  MIC: 32 µg/mL (≈ 103 µM)

## CCCCCCN1C(=O)C(O)=C(c2ccc(C(F)(F)F)cc2)C1CCCC (racemic)
Staphylococcus aureus [1]
  MIC: 32 µg/mL (≈ 83.5 µM)

## O=C1C(O)=C(c2ccc(O)cc2)C2CCCN12 (stereo not drawn)
Staphylococcus aureus [1]
  MIC: > 128 µg/mL
Bacillus cereus
  MIC: 50 to 100 µg/mL (≈ 216 to 432 µM)

## COc1ccc(C2=C(O)C(=O)N3CCCCC23)cc1 (stereo not drawn)
Staphylococcus aureus [1]
  MIC: > 128 µg/mL

## O=C1C(O)=C(c2ccccc2)C2CCCN12 (stereo not drawn)
Staphylococcus aureus [1]
  MIC: > 128 µg/mL
Bacillus cereus
  MIC: 50 to 100 µg/mL (≈ 232 to 465 µM)

## O=C1C(O)=C(c2ccc(Br)cc2)C2CCCCN12 (stereo not drawn)
Staphylococcus aureus [1]
  MIC: 32 µg/mL (≈ 104 µM)

## C=CCC1=C(O)C(=O)N2CCCC12 (stereo not drawn)
Staphylococcus aureus [1]
  MIC: > 128 µg/mL

## CC(=O)NC[C@H]1CN(c2ccc(N3CCOCC3)c(F)c2)C(=O)O1 [LINEZOLID]
Staphylococcus aureus [1]
  MIC: 1 µg/mL (≈ 2.96 µM)
[2]
  MIC: 0.25 µg/mL (≈ 0.741 µM)
Staphylococcus aureus [4]
  MIC: 1 µg/mL (≈ 2.96 µM)
Staphylococcus aureus [5]
  MIC: 1 µg/mL (≈ 2.96 µM)
Staphylococcus aureus [7]
  MIC: 0.5 µg/mL (≈ 1.48 µM)
Staphylococcus aureus [9]
  MIC: 1 µg/mL (≈ 2.96 µM)
[10]
  MIC: 0.25 µg/mL (≈ 0.741 µM)
Staphylococcus aureus [11]
  MIC: 0.5 µg/mL (≈ 1.48 µM)

## COc1ccc(C2=C(O)C(=O)N3CCCC23)cc1 (stereo not drawn)
Staphylococcus aureus [1]
  MIC: > 128 µg/mL

## O=C1C(O)=C(c2ccc(Cl)cc2)C2CCCCN12 (racemic)
Staphylococcus aureus [1]
  MIC: > 128 µg/mL

## CCC1C(c2ccc(C(F)(F)F)cc2)=C(O)C(=O)N1Cc1ccc(OC)cc1OC (racemic)
Staphylococcus aureus [1]
  MIC: 32 µg/mL (≈ 75.9 µM)

## CCC1C(c2ccc(C(F)(F)F)cc2)=C(O)C(=O)N1C (racemic)
Staphylococcus aureus [1]
  MIC: 64 µg/mL (≈ 224 µM)

## CCC1NC(=O)C(O)=C1c1ccc(C(F)(F)F)cc1 (racemic)
Staphylococcus aureus [1]
  MIC: 128 µg/mL (≈ 472 µM)

## O=C1C(O)=C(c2ccccc2)C2CCCCN12 (stereo not drawn)
Staphylococcus aureus [1]
  MIC: > 128 µg/mL

## O=C1C(O)=C(c2cccs2)C2CCCN12 (stereo not drawn)
Staphylococcus aureus [1]
  MIC: > 128 µg/mL

## CCC1C(c2ccc(C(F)(F)F)cc2)=C(O)C(=O)N1Cc1ccccc1 (racemic)
Staphylococcus aureus [1]
  MIC: 8 µg/mL (≈ 22.1 µM)
[2]
  MIC: 8 µg/mL (≈ 22.1 µM)
Staphylococcus aureus [3]
  MIC: 8 µg/mL (≈ 22.1 µM)
Staphylococcus aureus [4]
  MIC: 64 µg/mL (≈ 177 µM)
Staphylococcus aureus [5]
  MIC: 32 µg/mL (≈ 88.6 µM)
Staphylococcus aureus [6]
  MIC: 16 µg/mL (≈ 44.3 µM)
Staphylococcus aureus [7]
  MIC: 16 µg/mL (≈ 44.3 µM)
Staphylococcus aureus [8]
  MIC: 32 µg/mL (≈ 88.6 µM)
Staphylococcus aureus [9]
  MIC: 32 µg/mL (≈ 88.6 µM)
[10]
  MIC: 8 µg/mL (≈ 22.1 µM)
Staphylococcus aureus [11]
  MIC: 16 µg/mL (≈ 44.3 µM)

## CCC1C(c2ccc(C(F)(F)F)cc2)=C(O)C(=O)N1C(C)c1ccccc1 (stereo not drawn)
Staphylococcus aureus [1]
  MIC: 32 µg/mL (≈ 85.2 µM)

## O=C1C(O)=C(c2ccc(F)cc2)C2CCCCN12 (racemic)
Staphylococcus aureus [1]
  MIC: > 128 µg/mL

## CCC1C(c2ccc(C(F)(F)F)cc2)=C(O)C(=O)N1c1ccccc1 (racemic)
Staphylococcus aureus [1]
  MIC: 8 µg/mL (≈ 23 µM)
[2]
  MIC: 4 µg/mL (≈ 11.5 µM)
Staphylococcus aureus [3]
  MIC: 8 µg/mL (≈ 23 µM)
Staphylococcus aureus [4]
  MIC: 32 µg/mL (≈ 92.1 µM)
Staphylococcus aureus [5]
  MIC: 64 µg/mL (≈ 184 µM)
Staphylococcus aureus [6]
  MIC: 8 µg/mL (≈ 23 µM)
Staphylococcus aureus [7]
  MIC: 8 µg/mL (≈ 23 µM)
Staphylococcus aureus [8]
  MIC: 16 µg/mL (≈ 46.1 µM)
Staphylococcus aureus [9]
  MIC: 32 µg/mL (≈ 92.1 µM)
[10]
  MIC: 8 µg/mL (≈ 23 µM)
Staphylococcus aureus [11]
  MIC: 8 µg/mL (≈ 23 µM)

## C#CCN1C(=O)C(O)=C(c2ccc(C(F)(F)F)cc2)C1CC (racemic)
Staphylococcus aureus [1]
  MIC: 32 µg/mL (≈ 103 µM)

## CCC1C(c2ccc(C(F)(F)F)cc2)=C(O)C(=O)N1CCCCO (racemic)
Staphylococcus aureus [1]
  MIC: > 128 µg/mL

## CCC1C(c2ccc(C(F)(F)F)cc2)=C(O)C(=O)N1C1CCCCC1 (racemic)
Staphylococcus aureus [1]
  MIC: 8 µg/mL (≈ 22.6 µM)
[2]
  MIC: 2 µg/mL (≈ 5.66 µM)
Staphylococcus aureus [3]
  MIC: 2 µg/mL (≈ 5.66 µM)
Staphylococcus aureus [4]
  MIC: 32 µg/mL (≈ 90.6 µM)
Staphylococcus aureus [5]
  MIC: 64 µg/mL (≈ 181 µM)
Staphylococcus aureus [6]
  MIC: 32 µg/mL (≈ 90.6 µM)
Staphylococcus aureus [7]
  MIC: 8 µg/mL (≈ 22.6 µM)
Staphylococcus aureus [8]
  MIC: 32 µg/mL (≈ 90.6 µM)
Staphylococcus aureus [9]
  MIC: 32 µg/mL (≈ 90.6 µM)
[10]
  MIC: 16 µg/mL (≈ 45.3 µM)
Staphylococcus aureus [11]
  MIC: 8 µg/mL (≈ 22.6 µM)

## O=C1C(O)=C(c2cccs2)C2CCCCN12 (stereo not drawn)
Staphylococcus aureus [1]
  MIC: 16 µg/mL (≈ 68 µM)
